Where a name gives a salt, the structure may show the parent alone.
How the values were obtained:
AMPK = AMPK activation effect (AMPK [pT172] ELISA) in MCF7 cells; type: cell-based, human; settings: 24 hours; for AMPK activation effect (%) 10 μM / AMPK activation effect (%) 50 μM / AMPK activation effect (%) 5 μM: AMPKα Thr172 phosphorylation relative to untreated cells; for AC150: concentration at which AMPK activation reached 150%
Protocol: ELISA kit (Invitrogen, Catalog No. KH00651).
MCF7 cells were cultured in a DMEM medium supplemented with 10% fatal bovine serum (commercially available from Gibco Life Technologies (US)). Thereafter, the cultured MCF7 cells were put into a 6-well plate with approximately 5×10^5 cells per well, and cultured in an incubator supplied with 5% CO2. Culture media were treated with the derivatives synthesized in the Examples at concentrations of 5, 10 and 50 uM, and then cultured for 24 hours. […] Subsequently, the cells were lysed according to a method presented in the operation manual of the AMPK [pT172] ELISA kit, and 20 μg of a cell lysate was then yielded through protein assay. Thereafter, the AMPK activation effect was obtained by determining a degree of phosphorylation of a 172nd threonine residue (Thr172) of the AMPKα from the cell lysate according to the method presented in the operation manual of the AMPK [pT172] ELISA kit.

HCT116 cells = assay: Effect of inhibiting cancer cell proliferation (MTT) in HCT116 cells; type: cell-based, human; settings: Homo sapiens, HCT-116, 48 h; for inhibition at 100 µM: read-out: Cell growth inhibition (%) at 100 μM; for inhibition at 25 µM: read-out: Cell growth inhibition (%) at 25 μM
From the text: HCT116 cells derived from human colorectal cancer were used, and an effect of inhibiting cancer cell proliferation of the biguanide derivative was confirmed by measuring a concentration value (cell growth inhibition concentration, GIC50) at which cell growth was inhibited by 50% using a 3-(4,5-dimethylthiazol-2-yl)-2,5-diphenyltetrazolium bromide (MTT) reagent.
First, HCT116 cells (purchased from the KCLB) were put on a 96-well plate and cultured in a DMEM medium supplemented with 10% fatal bovine serum (commercially available from Gibco Life Technologies (US)) for 16 hours so that approximately 5,000 cells were counted in each well. Subsequently, to obtain the GIC50 value of each compound, the culture media were treated with 100 μM, 25 μM, 6.25 μM, 1.56 μM or 0.39 μM of the compound, and then cultured for 48 hours. In order to determine whether the cells survived after treatment with the compounds, MTT (commercially available from AMRESCO (US)) was added to the culture media which were then cultured for another 3 hours. Formed formazane crystals were dissolved using dimethyl sulfoxide (DMSO) and the absorbance of the resulting solution was measured at 560 nm. After the 48-hour culture, a ratio of a living cell count on a well plate treated with the compounds synthesized in the Examples to a cell count cultured on a well plate not treated with the compound was indicated as cell viability (%) according to the concentration of each treated compound. The cell viability (%) was used to plot a cell viability curve graph and calculate a concentration (GIC50) value of the compound at which the growth was inhibited by 50%, thereby confirming the inhibition effect of cancer cell proliferation.

GI50 (HCT116 cells) | SMILES | AMPK activation effect (%) 10 μM (AMPK) | AMPK activation effect (%) 50 μM (AMPK) | AC150 (AMPK) | inhibition at 100 µM (HCT116 cells) | AMPK activation effect (%) 5 μM (AMPK) | inhibition at 25 µM (HCT116 cells)
89.9 µM | COc1ccc(NC(=N)NC(=N)N2CC=C(C)C2)cc1OC.Cl [Example 23, N1-(3-methyl)-1,2-dihydropyrrole-N5-(3,4-dimethoxy)phenyl biguanide hydrochloride] | 57% | 279% | 21.3 µM | 29.5% |  | 
10 µM | CC1CCCN(C(=N)NC(=N)Nc2ccc(Cl)cc2)C1.Cl (stereo not drawn) [Example 87, N1-(3-methyl)piperidine-N5-(4-chloro)phenyl biguanide hydrochloride] | 297% |  | 1.9 µM |  | 219% | 100%
9.2 µM | CC1CCCN(C(=N)NC(=N)Nc2ccc(F)cc2)C1.Cl (stereo not drawn) [Example 67, N1-(3-methyl)piperidine-N5-(4-fluoro)phenyl biguanide hydrochloride] | 427% |  | 1.6 µM |  | 258% | 100%
6.6 µM | CC1CCCN(C(=N)NC(=N)Nc2cccc(C(F)(F)F)c2)C1.Cl (stereo not drawn) [Example 88, N1-(3-methyl)piperidine-N5-(3-trifluoromethyl)phenyl biguanide hydrochloride] | 399% |  | 0.7 µM |  | 327% | 100%
6.8 µM | CC1CCCCN1C(=N)NC(=N)Nc1ccc(Cl)c(C(F)(F)F)c1.Cl (stereo not drawn) [Example 80, N1-(2-methyl)piperidine-N5-(4-chloro, 3-trifluoromethyl)phenyl biguanide hydrochloride] | 590% |  | 1.1 µM |  | 334% | 99.7%
9.3 µM | CC1CCCN(C(=N)NC(=N)Nc2ccc(OC(F)(F)F)c(F)c2)C1.Cl (stereo not drawn) [Example 75, N1-(3-methyl)piperidine-N5-(3-fluoro, 4-trifluoromethoxy)phenyl biguanide hydrochloride] | 259% |  | 3.9 µM |  | 133% | 100%
107 µM | COc1cc(NC(=N)NC(=N)N2CC=CC2)cc(OC)c1.Cl [Example 45, N1-1,2-dihydropyrrole-N5-(3,5-dimethoxy)phenyl biguanide hydrochloride] | 202% | 299% | 4.8 µM | 47.2% |  | 
22.8 µM | Cl.N=C(NCc1cccc(OC(F)(F)F)c1)NC(=N)N1CC=CCC1 [Example 55, N1-1,2,3,6-tetrahydropyridine-N5-(3-trifluoromethoxy)benzyl biguanide hydrochloride] | 389% | 608% | 2.1 µM | 97.9% |  | 
141 µM | CCCCNC(=N)NC(=N)N1CC=CCC1.Cl [Example 59, N1-1,2,3,6-tetrahydropyridine-N5-butyl biguanide hydrochloride] | 104% | 283% | 16.6 µM | 44.5% |  | 
7.8 µM | Cl.N=C(NC(=N)N1CC=CCC1)Nc1cccc(C(F)(F)F)c1 [Example 31, N1-1,2,3,6-tetrahydropyridine-N5-(3-trifluoromethyl)phenyl biguanide hydrochloride] | 391% |  | 1.8 µM | 99.5% |  | 
9.1 µM | CC1CCCC(C)N1C(=N)NC(=N)Nc1ccc(Br)cc1 (stereo not drawn) [Example 97, N1-(2,6-dimethyl)piperidine-N5-(4-bromo)phenyl biguanide hydrochloride] | 233% |  | 4.2 µM |  | 143% | 100%

— patent US9884821B2, “N1-cyclic amine-N5-substituted biguanide derivatives, methods of preparing the same and pharmaceutical composition comprising the same” (IMMUNOMET THERAPEUTICS INC., priority 2013, dated 2018)
